Earlier results on two compounds are cited in patent US20120070594A1, “HYDROGENATED BISPHENOL-A-BASED POLYMERS AS SUBSTITUTES FOR BISPHENOL-A-BASED POLYMERS” (priority 2010, published 2012).

Data set [1] deals with rat.

Broadly, the pKa is the negative logarithm of the acid dissociation constant. On to `CC(C)(C1CCC(O)CC1)C1CCC(O)CC1` (stereo not drawn) [HBPA, 4-[2-(4-hydroxycyclohexyl)propan-2-yl]cyclohexan-1-ol], for which the pKa is recorded as 17. Besides, the “LD50 (rat)” value in data set [1] was 5660 mg per kg.
Regarding `CC(C)(c1ccc(O)cc1)c1ccc(O)cc1` [BPA, 4,4′-(Propane-2,2-diyl)diphenol, reference compound], the pKa is 9.6.
